In US20240182465A1 (GENFLEET THERAPEUTICS (SHANGHAI) INC., priority 2021, published 2024):
Structures can show the parent of a compound that is named as a salt.

What was measured:
HPK1 [1] = molecular target: T1, HPK1 (Homo sapiens, UniProt Q92918); assay: HPK1 kinase activity assay (ADP-Glo); settings: HPK1 Kinase activity IC50 (nM), 1 nM HPK1, 10 μM ATP, 0.1 μg/μL MBP
T1 sequence (Q92918 1-346 limits assumed): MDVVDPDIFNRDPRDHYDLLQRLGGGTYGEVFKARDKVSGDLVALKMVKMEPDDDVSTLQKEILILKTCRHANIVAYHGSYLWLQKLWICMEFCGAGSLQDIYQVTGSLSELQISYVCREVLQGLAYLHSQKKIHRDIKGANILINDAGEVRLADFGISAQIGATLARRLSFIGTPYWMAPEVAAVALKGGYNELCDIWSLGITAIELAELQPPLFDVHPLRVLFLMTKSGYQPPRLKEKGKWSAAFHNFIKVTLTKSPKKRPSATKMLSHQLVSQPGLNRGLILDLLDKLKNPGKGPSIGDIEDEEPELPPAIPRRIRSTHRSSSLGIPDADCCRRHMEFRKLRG
Method: Preparation of buffer: 1× reaction buffer (40 mM Tris-HCl, 20 mM MgCl2, 0.01% Brij35, 50 μM DTT, 0.1 mg/ml BSA) was prepared using sterile water, which was prepared and used on the day of the experiment.
Preparation of 1000× drug stock plate: a 1000× compound stock plate was prepared. […] The compound stock plate was sealed with a sealing film and stored in a −20° C. refrigerator for later use.
Compound preparation and dosing: the 1000× drug stock plate was taken and melted at room temperature in the dark. Then 5× drug intermediate plate was prepared using reaction buffer and mixed well. 2 μL was transferred from the 5× drug intermediate plate into a 384-well plate, and negative control well and positive control well (in which 2 μL reaction buffer containing 0.5% DMSO was added) were set. Each point was repeated twice.
Preparation and incubation of reaction mixture: HPK1 protein was diluted to a 2.5× working solution with reaction buffer. 4 μL 2.5×HPK1 protein was added to each well containing test compound and positive control well, and 4 μL of reaction buffer without HPK1 protein was added to the negative control well. The obtained mixture was centrifuged at 1000 rpm for 1 min and then incubated in a 20° C. incubator for 15 min. A 2.5× mixed working solution of MBP protein and ATP was prepared with reaction buffer at concentrations of 0.5 μg/μL and 50 PM, respectively. 4 μL of the mixed working solution of MBP and ATP was added to each well, centrifuged at 1000 rpm for 1 min, and then incubated in a 20° C. incubator for 90 min.
ADP-Glo detection and reading plate: 10 μl ADP-Glo was added to each well of the test plate. The resulting mixture was centrifuged at 1000 rpm for 1 min and incubated in a 20° C. incubator for 60 min. Then 10 μL of the final incubation solution was transferred from the test plate to a new 384-well plate. 10 μL of kinase detection reagent was added to each well, centrifuged at 400 g for 1 min, and incubated in a 20° C. incubator for 60 min. Chemiluminescent signals were read by a microplate reader.

HPK1 [2] = molecular target: HPK1 (Homo sapiens, UniProt Q92918); assay: SLP76 phosphorylation assay (intracellular HPK1 inhibitory activity, p-SLP76 Ser376 sandwich ELISA); settings: p-SLP76 IC50(nM), Jurkat, Clone E6-1 cells; 1 h compound pre-incubation, anti-CD3 beads stimulation 20 min; SLP76 phosphorylation at S376
Target sequence in this assay (Q92918 whole entry): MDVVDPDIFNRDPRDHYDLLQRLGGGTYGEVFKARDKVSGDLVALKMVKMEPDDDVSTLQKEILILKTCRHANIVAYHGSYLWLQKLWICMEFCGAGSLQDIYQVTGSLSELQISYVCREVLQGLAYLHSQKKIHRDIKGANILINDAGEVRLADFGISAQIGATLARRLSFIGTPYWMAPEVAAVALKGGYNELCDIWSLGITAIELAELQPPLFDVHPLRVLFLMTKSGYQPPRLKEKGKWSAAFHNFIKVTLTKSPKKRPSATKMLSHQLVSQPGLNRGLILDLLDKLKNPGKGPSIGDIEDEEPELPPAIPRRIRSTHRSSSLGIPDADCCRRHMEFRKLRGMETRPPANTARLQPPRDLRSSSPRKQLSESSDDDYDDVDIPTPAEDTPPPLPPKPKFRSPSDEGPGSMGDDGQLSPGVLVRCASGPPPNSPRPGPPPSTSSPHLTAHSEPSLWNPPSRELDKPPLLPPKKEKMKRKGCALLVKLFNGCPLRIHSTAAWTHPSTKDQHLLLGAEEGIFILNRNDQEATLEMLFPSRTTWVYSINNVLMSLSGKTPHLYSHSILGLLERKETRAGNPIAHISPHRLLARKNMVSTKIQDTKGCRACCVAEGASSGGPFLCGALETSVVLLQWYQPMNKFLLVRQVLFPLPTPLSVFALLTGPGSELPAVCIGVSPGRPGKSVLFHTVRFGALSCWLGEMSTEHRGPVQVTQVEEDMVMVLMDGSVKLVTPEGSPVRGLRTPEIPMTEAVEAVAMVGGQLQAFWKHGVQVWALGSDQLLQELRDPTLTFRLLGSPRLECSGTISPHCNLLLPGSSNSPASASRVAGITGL

| Structure (SMILES) | IC50 (HPK1 [1]) | IC50 (HPK1 [2]) |
| --- | --- | --- |
| Cc1c[nH]c2ncc(-c3cc4c(c([C@@H]5CCCN5)c3)CN(C(=O)c3cccnc3)CC4)cc12 [Compound Z210, (S)-1-(6-(3-methyl-1H-pyrrolo[2,3-b]pyridin-5-yl)-8-(pyrrolidin-2-yl)-3,4-dihydroisoquinolin-2(1H)-yl)(pyridin-3-yl)methanone] | 0.62 nM | 227 nM |
| Cc1c[nH]c2ncc(-c3cc4c(c([C@@H]5CCCN5)c3)CN(C(=O)[C@H](O)c3ccccc3)CC4)cc12 [Compound Z289, (R)-2-hydroxy-1-(6-(3-methyl-1H-pyrrolo[2,3-b]pyridin-5-yl)-8-((S)-pyrrolidin-2-yl)-3,4-dihydroisoquinolin-2(1H)-yl)-2-acetophenone] | 1.35 nM | 378 nM |
| Cc1c[nH]c2ncc(-c3cc4c(c(C5CCN5)c3)COCC4)cc12 (stereo not drawn) [Compound Z232, 5-(8-(azetidin-2-yl)isochroman-6-yl)-3-methyl-1H-pyrrolo[2,3-b]pyridine] | 20.5 nM | 1660 nM |
| Cc1cn(C2CC2)nc1C(=O)N1CCc2cc(-c3cnc4[nH]cc(C)c4c3)cc([C@@H]3CCCN3)c2C1 [Compound Z342, (S)-(1-cyclopropyl-4-methyl-1H-pyrazol-3-yl)-[6-(3-methyl-1H-pyrrolo[2,3-b]pyridin-5-yl)-8-[pyrrolidin-2-yl]-3,4-dihydro-2(1H)-isoquinolin-yl]methanone] | – | 271 nM |
| Cc1c[nH]c2ncc(-c3cc4c(c([C@@H]5CCCN5)c3)CN(C(=O)c3cn(C)nc3C(F)(F)F)CC4)cc12 [Compound Z337, [6-(3-methyl-1H-pyrrolo[2,3-b]pyridin-5-yl)-8-[(2S)-pyrrolidin-2-yl]-3,4-dihydro-1H-isoquinolin-2-yl]-[l-methyl-3-(trifluoromethyl)pyrazol-4-yl]methanone] | 1.57 nM | 359 nM |
| COc1cc(N2CCc3cc(-c4cnc5[nH]cc(C)c5c4)cc([C@@H]4CCCN4)c3C2)ccn1 [Compound Z344, (S)-2-(2-methoxypyridin-4-yl)-6-(3-methyl-1H-pyrrolo[2,3-b]pyridin-5-yl)-8-(pyrrolidin-2-yl)-1,2,3,4-tetrahydroisoquinoline] | 1.52 nM | 386 nM |
| Cc1c[nH]c2ncc(-c3cc4c(c(CN5CCCC5)c3)COCC4)cc12 [Compound Z109, 3-methyl-5-(8-(pyrrolidin-1-ylmethyl)isochroman-6-yl)-1H-pyrrolo[2,3-b]pyridine] | 9.78 nM | 1060 nM |
| N#CCc1c[nH]c2ncc(-c3cc4c(c([C@H]5CCCN5)c3)COCC4)cc12 (single isomer, unassigned) [Compound Z101-1] | 42.7 nM | – |
| Cc1c[nH]c2ncc(-c3cc4c(c([C@@H]5CCCN5)c3)CN(C(=O)c3cnc(C5CC5)nc3)CC4)cc12 [Compound Z351, (S)-(2-cyclopropylpyrimidin-5-yl)(6-(3-methyl-1H-pyrrolo[2,3-b]pyridin-5-yl)-8-(pyrrolidin-2-yl)-3,4-dihydroisoquinolin-2(1H)-yl)methanone] | 0.87 nM | 126 nM |
| Cc1c[nH]c2ncc(-c3cc4c(c([C@@H]5COCCN5)c3)CN(C(=O)[C@](C)(O)C(F)(F)F)CC4)cc12 (single isomer, unassigned) [Compound Z309-1] | 0.58 nM | – |
| Cc1c[nH]c2ncc(-c3cc4c(c([C@@H]5CCCN5)c3)CN(c3ccccn3)CC4)cc12 [Compound Z128, (S)-6-(3-methyl-1H-pyrrolo[2,3-b]pyridin-5-yl)-2-(pyridin-2-yl)-8-(pyrrolidin-2-yl)-1,2,3,4-tetrahydroisoquinoline] | 168 nM | – |
| Cc1c[nH]c2ncc(-c3cc4c(c(C5COCCN5)c3)CN(C(=O)[C@](C)(O)C(F)(F)F)CC4)cc12 (stereo partly drawn) [Compound Z296, (2S)-3,3,3-trifluoro-2-hydroxy-2-methyl-1-(6-(3-methyl-1H-pyrrolo[2,3-b]pyridin-5-yl)-8-(morpholin-3-yl)-3,4-dihydroisoquinolin-2(1H)-yl)propan-1-one] | 0.86 nM | 223 nM |
| Cc1c[nH]c2ncc(-c3cc4c(c([C@@H]5CCCN5)c3)CCN(C(=O)[C@@](C)(O)C(F)(F)F)C4)cc12 [Compound Z285, (R)-3,3,3-trifluoro-2-hydroxy-2-methyl-1-(7-(3-methyl-1H-pyrrolo[2,3-b]pyridin-5-yl)-5-((S)-pyrrolidin-2-yl)-3,4-dihydroisoquinolin-2(1H)-yl)propan-1-one] | 0.91 nM | 323 nM |
| Cc1c[nH]c2ncc(-c3cc4c(c([C@@H]5CCCN5)c3)CN(C(=O)c3cnn(C)c3)C4)cc12 [Compound Z368, (S)-(1-methyl-1H-pyrazol-4-yl)(6-(3-methyl-1H-pyrrolo[2,3-b]pyridin-5-yl)-4-(pyrrolidin-2-yl)isoindolin-2-yl)methanone hydrochloride] | 1.41 nM | 417 nM |
| Cc1c[nH]c2ncc(-c3cc4c(c([C@@H]5CCCN5)c3)CN(C(=O)[C@H]3CCOC3)CC4)cc12 [Compound Z219-2, (S)-(6-(3-methyl-1H-pyrrolo[2,3-b]pyridin-5-yl)-8-(pyrrolidin-2-yl)-3,4-dihydroisoquinolin-2(1H)-yl) ((S)-tetrahydrofuran-3-yl)methanone] | 0.35 nM | 122 nM |
| CO[C@H]1CCN(C(=O)N2CCc3cc(-c4cnc5[nH]cc(C)c5c4)cc([C@@H]4CCCN4)c3C2)C1 [Compound Z357-1] | 0.31 nM | 99.3 nM |
| Cc1c[nH]c2ncc(-c3cc4c(c([C@H]5CCCN5)c3)COCC4)cc12 (single isomer, unassigned) [Compound Z97-1] | 120 nM | – |

| Structure (SMILES) | IC50 (HPK1 [1]) | IC50 (HPK1 [2]) |
| --- | --- | --- |
| CC(=O)N1CCc2cc(-c3cnc4[nH]cc(C)c4c3)cc([C@H]3CCCN3)c2C1 (single isomer, unassigned) [Compound Z98-1] | 49.4 nM | – |
| Cc1c[nH]c2ncc(-c3cc4c(c(N5CCC[C@@H]5CO)c3)COCC4)cc12 [Compound Z116-1, (R)-(1-(6-(3-methyl-1H-pyrrolo[2,3-b]pyridin-5-yl)isochroman-8-yl)pyrrolidin-2-yl)methanol] | 843 nM | – |
| Nc1ncc(-c2cc3c(c([C@@H]4CCCN4)c2)COCC3)cc1-c1nncs1 [Compound Z239, 5-[8-[(S)-pyrrolidin-2-yl]isochroman-6-yl]-3-(1,3,4-thiadiazol-2-yl)pyridin-2-amine] | – | 239 nM |
| CNC(c1ccccc1)c1cc(-c2cnc3[nH]cc(C)c3c2)cc2c1COCC2 (single isomer, unassigned) [Compound Z234-2] | > 1000 nM | – |
| Cc1c[nH]c2ncc(-c3cc4c(c([C@@H]5CC6(CC6)CN5)c3)COCC4)cc12 [Compound Z240] | 2.28 nM | – |
| Cc1cn(C2CC2)nc1C(=O)N1CCc2cc(-c3cnc4[nH]cc(C)c4c3)cc([C@@H]3CCCN3)c2C1 [Compound Z347, (S)-(1-cyclopropyl-4-methyl-1H-pyrazol-3-yl)-[6-(3-methyl-1H-pyrrolo[2,3-b]pyridin-5-yl)-8-[pyrrolidin-2-yl]-3,4-dihydro-1H-isoquinolin-2-yl]methanone] | – | 319 nM |
| Cc1c[nH]c2ncc(-c3cc4c(c([C@@H]5CCCN5)c3)CN(C(=O)c3cnn(CCO)c3)CC4)cc12 [Compound Z281, (S)-(1-(2-hydroxyethyl)-1H-pyrazol-4-yl)(6-(3-methyl-1H-pyrrolo[2,3-b]pyridin-5-yl)-8-(pyrrolidin-2-yl)-3,4-dihydroisoquinolin-2(1H)-yl)methanone] | – | 2030 nM |
| Cc1c[nH]c2ncc(-c3cc4c(c(CN5CCOCC5)c3)COCC4)cc12 [Compound Z115, 4-((6-(3-methyl-1H-pyrrolo[2,3-b]pyridin-5-yl)isochroman-8-yl)methyl)morpholine] | 257 nM | – |
| CC(C)c1c[nH]c2ncc(-c3cc([C@H]4CCCN4)c4cnccc4c3)cc12 (single isomer, unassigned) [Compound Z95-1] | 18.4 nM | – |
| Nc1ncc(-c2cc3c(c([C@H]4CCCN4)c2)COCC3)cc1-c1cn[nH]c1 (single isomer, unassigned) [Compound Z93-1] | 163 nM | – |
| Cc1c[nH]c2ncc(-c3cc4c(c([C@@H]5CCCN5)c3)CN(C(=O)N3C5CCC3COC5)CC4)cc12 [Compound Z388, (3-oxa-8-azabicyclo[3.2.1]octan-8-yl)(6-(3-methyl-1H-pyrrolo[2,3-b]pyridin-5-yl)-8-((S)-pyrrolidin-2-yl)-3,4-dihydroisoquinolin-2(1H)-yl)methanone] | – | 43.1 nM |
| CNC(c1ccccc1)c1cc(-c2cnc3[nH]cc(C)c3c2)cc2c1COCC2 (single isomer, unassigned) [Compound Z234-1] | 154 nM | – |
| CC(=O)N1CCc2cc(-c3cnc4[nH]cc(C)c4c3)cc([C@H]3COCCN3)c2C1 (single isomer, unassigned) [Compound Z119-2] | 90 nM | – |
| Cc1c[nH]c2ncc(-c3cc4c(c(C5CC6(CC6)CN5)c3)COCC4)cc12 (stereo not drawn) [Compound Z240-1, 5-(8-(5-azaspiro[2.4]heptan-6-yl)isochroman-6-yl)-3-methyl-1H-pyrrolo[2,3-b]pyridine] | – | 770 nM |
| Cc1c[nH]c2ncc(-c3cc4c(c(N5CCC[C@H]5CO)c3)COCC4)cc12 [Compound Z116-2, (S)-(1-(6-(3-methyl-1H-pyrrolo[2,3-b]pyridin-5-yl)isochroman-8-yl)pyrrolidin-2-yl)methanol] | > 1000 nM | – |
| Cc1c[nH]c2ncc(-c3cc4c(c([C@@H]5CCCN5)c3)CN(C(=O)Nc3cn[nH]c3)C4)cc12 [Compound Z385] | – | 3.3 nM |
